The record followed here is US8981111B2 (priority 2008, dated 2015).

Usually chromatographic logP stands for lipophilicity estimated from chromatographic retention.

The nature of the series: log P (HPLC/MS data of the preparation examples).
Setting [1] is: HPLC (LC-MS) method [b]: pH 2.7, 0.1% formic acid in water and acetonitrile, linear gradient 10% to 95% acetonitrile, EEC directive 79/831 Annex V.A8.
[2] abbreviates: LC-MS, method [b]: pH 2.7 with 0.1% formic acid in water and acetonitrile, linear gradient 10% to 95% acetonitrile.
Setting [3] is: method [b]: LC-MS at pH 2.7, 0.1% formic acid in water / acetonitrile, linear gradient 10% to 95% acetonitrile.

For the compound “2-(6-{[({(3-bromo-4-methoxyphenyl)[3-chloro-5-(trifluoromethyl)pyridin-2-yl]methylene}amino)oxy]methyl}pyridin-2-yl)-1H-isoindole-1,3(2H)-dione [Example 430]”, the “log P(HCOOH)” value is listed as 4.78. Besides, the log p under setting [1] is 1.67^[b].
On to “2-[({[(1-methyl-1H-imidazol-2-yl)(phenyl)methylene]amino}oxy)methyl]pyrimidin-4-amine [Example 7]”, for which, under setting [2], the log p was 1.26^[b]. The “log P(Neutral)” value (Neutral) came to 1.42.
Consider “2-[({[(1-methyl-1H-imidazol-5-yl)(phenyl)methylene]amino}oxy)methyl]pyrimidin-4-amine [Example 105]”, for which the “log P(HCOOH)” value is listed as under 0.23. Under setting [2], the log p is 5.05^[b].
In the case of “2-methyl-N-{4-[({[(1-methyl-1H-imidazol-5-yl)(phenyl)methylene]amino}-oxy)methyl]-1,3-thiazol-2-yl}propanamide [Example 143]”, the “log P(HCOOH)” value turned out to be 1.63. Besides, the log p under setting [3] was 1.11^[b].
In the case of “2-{6-[({[(1-methyl-1H-imidazol-5-yl)(3-thienyl)methylene]amino}oxy)-methyl]pyridin-2-yl}-1H-isoindole-1,3(2H)-dione [Example 491]”, the “log P(HCOOH)” value was 1.73. In addition, the log p under setting [1] was 3.67^[b].
Take “6-[({[(1-methyl-1H-imidazol-5-yl)(phenyl)methylene]amino}oxy)methyl]pyridin-2-amine [Example 108]”: the “log P(HCOOH)” value was found to be 0.29. The log p under setting [2] was 4.75^[b].
For the compound “6-{[({(3-bromo-4-methoxyphenyl)[3-chloro-5-(trifluoromethyl)pyridin-2-yl]methylene}amino)oxy]methyl}pyridin-2-amine [Example 432]”, the “log P(HCOOH)” value is reported as 2.54. For the same compound, under setting [1], the log p is 1.99^[b].
For `Cn1cncc1C(=NOCc1cccc(N)n1)c1ccccc1` (single isomer, unassigned) [Example 97], the log p under setting [2] is 0.25^[b].
Turning to `Cn1cncc1C(=NOCc1cccc(N)n1)c1ccccc1` (single isomer, unassigned) [Example 98], the log p under setting [2] was 0.29^[b].
Regarding `Cn1cncc1C(=NOCc1cccc(NC(=O)C(C)(C)C)n1)c1ccccc1` (single isomer, unassigned) [Example 123], the log p under setting [2] was 2.1^[b].
Take `Cn1cncc1C(=NOCc1cccc(NC(=O)C(C)(C)C)n1)c1ccccc1` (single isomer, unassigned) [Example 126]: the log p under setting [2] was 1.85^[b].
As to `Cc1nc(C(=NOCc2cccc(N3C(=O)c4ccccc4C3=O)n2)c2ccccc2)cs1` (single isomer, unassigned) [Example 168], under setting [3], the log p was 3.27^[b].
In the case of `Cc1nc(C(=NOCc2cccc(N)n2)c2ccccc2)cs1` (single isomer, unassigned) [Example 169], under setting [3], the log p is 1.7^[b].
In the case of `Cc1nc(C(=NOCc2cccc(N3C(=O)c4ccccc4C3=O)n2)c2ccccc2)cs1` (single isomer, unassigned) [Example 170], the log p under setting [3] was 3.55^[b].
The same measure, in the same setting: the value for `Cc1nc(C(=NOCc2cccc(NC(=O)CC(C)C)n2)c2ccccc2)cs1` (single isomer, unassigned) [Example 171] was 3.46^[b]; that for `Cc1nc(C(=NOCc2cccc(NC(=O)Cc3ccccc3)n2)c2ccccc2)cs1` (single isomer, unassigned) [Example 173] was 3.61^[b].
Still for that read-out and setting: the value for `Cc1nc(C(=NOCc2cccc(N)n2)c2ccccc2)cs1` (single isomer, unassigned) [Example 174] was 1.47^[b]; that for `CCCCCC(=O)Nc1cccc(CON=C(c2ccccc2)c2csc(C)n2)n1` (single isomer, unassigned) [Example 188] was 3.89^[b]; that for `CCCCCC(=O)Nc1cccc(CON=C(c2ccccc2)c2csc(C)n2)n1` (single isomer, unassigned) [Example 189] was 4.26^[b].
`Cc1nc(C(=NOCc2cccc(NC(=O)CC(C)C)n2)c2ccccc2)cs1` (single isomer, unassigned) [Example 190]: under setting [3], the log p is 3.75^[b].
Still for that read-out and setting: as for `Cc1nc(C(=NOCc2cccc(NC(=O)Cc3ccccc3)n2)c2ccccc2)cs1` (single isomer, unassigned) [Example 191], the figure is 3.87^[b].
Turning to `CCCCCOC(=O)Nc1cccc(CON=C(c2ccccc2)c2ocnc2C)n1` (single isomer, unassigned) [Example 318], under setting [2], the log p is 4.34^[b].
Turning to `CCCCCOC(=O)Nc1cccc(CON=C(c2ccccc2)c2ocnc2C)n1` (single isomer, unassigned) [Example 319], the log p under setting [2] is 4.54^[b].
`CCCCCOC(=O)Nc1nc(CON=C(c2ccccc2)c2ocnc2C)cs1` (single isomer, unassigned) [Example 322]: the log p under setting [2] is 3.87^[b].
With `CCCCCC(=O)Nc1cccc(CON=C(c2ccccc2)c2ocnc2C)n1` (single isomer, unassigned) [Example 323], under setting [2], the log p was 3.67^[b].
For `Cc1ncoc1C(=NOCc1csc(N)n1)c1ccccc1` (single isomer, unassigned) [Example 350], the log p under setting [2] was 1.3^[b].
Regarding `Cn1cncc1C(=NOCc1cccc(N)n1)c1ccsc1` (single isomer, unassigned) [Example 418], the log p under setting [1] was 0.39^[b].
Consider `Cn1cncc1C(=NOCc1cccc(N)n1)c1ccsc1` (single isomer, unassigned) [Example 419], for which the log p under setting [1] was 0.32^[b].
In the case of `CCCCCC(=O)Nc1cccc(CON=C(c2ccsc2)c2cncn2C)n1` (single isomer, unassigned) [Example 426], the log p under setting [1] is 1.99^[b].
As for `CCCCCC(=O)Nc1cccc(CON=C(c2ccsc2)c2cncn2C)n1` (single isomer, unassigned) [Example 427], the log p under setting [1] was 1.99^[b].
Take `CCCCCOC(=O)Nc1nc(CON=C(c2cccs2)c2cncn2C)cs1` (single isomer, unassigned) [Example 459]: the log p under setting [1] is 2.16^[b].
In the case of `CCCCCOC(=O)Nc1nc(CON=C(c2cccs2)c2cncn2C)cs1` (single isomer, unassigned) [Example 460], the log p under setting [1] was 2.25^[b].
`CCCCCOC(=O)Nc1nc(CON=C(c2ccsc2)c2cncn2C)cs1` (single isomer, unassigned) [Example 461]: the log p under setting [1] was 2.22^[b].
As to `CCCCCOC(=O)Nc1nc(CON=C(c2ccsc2)c2cncn2C)cs1` (single isomer, unassigned) [Example 462], the log p under setting [1] was 2.23^[b].
`Cc1ncc(C(=NO)c2ccccc2)n1C` [1-(1,2-dimethyl-1H-imidazol-5-yl)-N-hydroxy-1-phenylmethanimine] had a chromatographic logP (HCOOH (formic acid)) of 0.43.
In turn, `ON=C(c1ccsc1)c1snc(Cl)c1Cl` [1-(3,4-dichloro-1,2-thiazol-5-yl)-N-hydroxy-1-(3-thienyl)methanimine] yielded a chromatographic logP (HCOOH (formic acid)) of 3.04.
Same read-out and setting: the value for `Cc1cnc(C)c(C(=NO)c2ccccc2)n1` [1-(3,6-dimethylpyrazin-2-yl)-N-hydroxy-1-phenylmethanimine] was 1.7.
Under “HPLC/MS with HCOOH (formic acid)”, `COc1ccc(C(=NO)c2ncc(C(F)(F)F)cc2Cl)cc1Br` [1-(3-bromo-4-methoxyphenyl)-1-[3-chloro-5-(trifluoromethyl)pyridin-2-yl]-N-hydroxymethanimine] yielded a chromatographic logP of 3.37.
For the setting “HCOOH (formic acid)”, `CON(C)C(=O)c1snc(Cl)c1Cl` [3,4-dichloro-N-methoxy-N-methyl-1,2-thiazole-5-carboxamide] returned a chromatographic logP of 1.66.
Under “HCOOH (formic acid)”, `Cc1ncc(C(=O)c2ccccc2)n1C` [(1,2-dimethyl-1H-imidazol-5-yl)(phenyl)methanone] gave a chromatographic logP of 0.56.
`Cn1ccnc1C(=O)c1ccccc1` [(1-methyl-1H-imidazol-2-yl)(phenyl)methanone] displayed a chromatographic logP (HCOOH (formic acid)) of 1.38.
The compound `Cn1cncc1C(=O)c1cccs1` [(1-methyl-1H-imidazol-5-yl)(2-thienyl)methanone] displayed a chromatographic logP (HCOOH (formic acid)) of 0.52.
Where the note is “HCOOH (formic acid)”, `Cn1cncc1C(=O)c1ccsc1` [(1-methyl-1H-imidazol-5-yl)(3-thienyl)methanone] came in with a chromatographic logP of 0.43.
`Cn1cncc1C(=O)c1ccccc1` [(1-methyl-1H-imidazol-5-yl)(phenyl)methanone]: the chromatographic logP (HCOOH (formic acid)) worked out at 0.79.
For the setting “HCOOH (formic acid)”, `O=C(c1ccsc1)c1snc(Cl)c1Cl` [(3,4-dichloro-1,2-thiazol-5-yl)(3-thienyl)methanone] came in with a chromatographic logP of 3.31.
Under “HCOOH (formic acid)”, `Cc1cnc(C)c(C(C#N)c2ccccc2)n1` (stereo not drawn) [(3,6-dimethylpyrazin-2-yl)(phenyl)acetonitrile] had a chromatographic logP of 2.28.
Where the note is “HCOOH (formic acid)”, `Cc1cnc(C)c(C(=O)c2ccccc2)n1` [(3,6-dimethylpyrazin-2-yl)(phenyl)methanone] yielded a chromatographic logP of 2.18.
Turning to `Cc1nocc1C(=O)c1cccs1` [(3-methyl-1,2-oxazol-4-yl)(2-thienyl)methanone], where the note is “HCOOH (formic acid)”, the chromatographic logP turned out to be 2.2.
`Cc1nocc1C(=NOC(=O)c1ccccn1)c1cccs1` [({[(3-methyl-1,2-oxazol-4-yl)(2-thienyl)methylene]amino}oxy)(pyridin-2-yl)methanone] came in with a chromatographic logP (HCOOH (formic acid)) of 2.25.
`Cc1nnsc1C(=NOCc1ccccn1)c1ccccc1` [Example 1]: the log p (HPLC on reversed phase columns, method [a]: pH 2.3 with 0.1% phosphoric acid and acetonitrile as eluent) was 2.36^[a].
Take `Cn1ccnc1C(=NOCc1cccc(N2C(=O)c3ccccc3C2=O)n1)c1ccccc1` [Example 2]: the log p under setting [2] is 1.8^[b].
On to `Cn1ccnc1C(=NOCc1nccc(N)n1)c1ccccc1` [Example 3], for which, under “LC-MS, method [c]: pH 7.8 with 0.001 molar ammonium hydrogen carbonate solution in water, linear gradient 10% to 95% acetonitrile”, the log p is 1.42^[c].
`Cn1ncnc1C(=NOCc1cccc(N)n1)c1ccccc1` [Example 4, 6-[({[(1-methyl-1H-1,2,4-triazol-5-yl)(phenyl)methylene]amino}oxy)methyl]pyridin-2-amine] had a chromatographic logP (reversed phase HPLC column, pH 2.7) of 1.
